Data published in patent publication US12522594B2, “2-heteroaryl-3-oxo-2,3-dihydropyridazine-4-carboxamides for the treatment of cancer” (Deutsches Krebsforschungszentrum, priority 2017, dated 2026).

How the values were obtained:
AHR [1] = molecular target: T1, AHR (Homo sapiens, UniProt P35869); test: In vitro assay 1: antagonism in human cell line (transactivation assay, U87 cells prestimulated with kynurenic acid, DRE firefly luciferase reporter); assay type: cell-based; set-up: host or cells: U87 glioblastoma cells, stably transfected with DRE firefly luciferase and renilla reporter constructs; conditions: 150 uM kynurenic acid, 20 hours, read-out: Assay 1: AHR-luc Hum Antagonism IC50
T1 sequence (P35869 11-848): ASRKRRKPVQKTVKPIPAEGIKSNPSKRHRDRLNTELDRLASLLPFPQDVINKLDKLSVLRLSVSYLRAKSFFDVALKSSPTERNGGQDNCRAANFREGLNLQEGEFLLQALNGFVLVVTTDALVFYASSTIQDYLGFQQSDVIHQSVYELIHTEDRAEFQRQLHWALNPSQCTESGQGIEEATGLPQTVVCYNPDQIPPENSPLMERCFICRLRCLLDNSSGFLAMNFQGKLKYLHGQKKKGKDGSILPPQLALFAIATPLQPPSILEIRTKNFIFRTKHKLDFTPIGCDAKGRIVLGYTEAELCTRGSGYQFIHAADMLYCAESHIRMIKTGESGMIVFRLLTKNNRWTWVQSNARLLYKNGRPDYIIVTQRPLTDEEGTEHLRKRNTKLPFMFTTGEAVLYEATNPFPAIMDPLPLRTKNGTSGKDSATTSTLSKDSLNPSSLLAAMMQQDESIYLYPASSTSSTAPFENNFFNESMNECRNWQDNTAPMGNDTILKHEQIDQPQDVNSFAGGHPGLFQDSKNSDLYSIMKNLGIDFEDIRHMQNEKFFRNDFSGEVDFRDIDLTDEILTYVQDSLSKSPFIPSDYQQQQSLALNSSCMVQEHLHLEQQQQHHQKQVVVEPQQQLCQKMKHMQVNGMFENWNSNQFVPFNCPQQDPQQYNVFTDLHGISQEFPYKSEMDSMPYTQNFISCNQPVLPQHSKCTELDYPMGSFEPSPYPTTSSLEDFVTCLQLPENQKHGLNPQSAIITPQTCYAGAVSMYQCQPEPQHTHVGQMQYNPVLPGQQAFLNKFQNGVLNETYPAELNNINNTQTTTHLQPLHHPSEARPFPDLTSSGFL
Method: (§1) Transactivation Assay in Human Cell Line (In Vitro Assays 1 and 2)
(§2) Transactivation assays were carried out in U87 glioblastoma cells (ATCC) endogenously expressing AHR. In addition the cells were stably transfected with an AHR inducible firefly luciferase reporter gene construct that carried AHR-binding sites (DRE) in its promoter and a renilla reporter gene construct with constitutively active promoter. Kynurenic acid is an endogenous AHR activating ligand and was used to prestimulate test cells prior to testing the antagonistic properties of compounds.
In Vitro Assay 1: Antagonism in Human Cell Line
Normalization was done by positive and negative controls.

AHR [2] = molecular target: T1, AHR; test: In vitro assay 2: agonism in human cell line (transactivation assay, U87 cells, DRE firefly luciferase reporter); assay type: cell-based; set-up: host or cells: U87 glioblastoma cells, stably transfected with DRE firefly luciferase and renilla reporter constructs; conditions: no kynurenic acid, 20 hours, read-out: Assay 2: AHR-luc Hum Agonism IC50
Method: as §1, §2
In Vitro Assay 2: Agonism in Human Cell Line
As positive activation control cells were incubated with 300 uM kynurenic acid. Normalization was done by positive and negative controls.

| Structure (SMILES) | IC50 (AHR [1]) | IC50 (AHR [2]) |
| --- | --- | --- |
| O=C(NC(CO)C1CC1)c1cc(-c2ccc(Cl)cc2)nn(-c2cncc(F)c2)c1=O (racemic) [Example 97, 6-(4-Chlorophenyl)-N-[(1RS)-1-cyclopropyl-2-hydroxyethyl]-2-(5-fluoropyridin-3-yl)-3-oxo-2,3-dihydropyridazine-4-carboxamide] | 7.06 nM | > 20000 nM |
| O=C(NCC(O)C(F)F)c1cc(-c2ccc(C(F)(F)F)cc2)nn(-c2cccnc2)c1=O (racemic) [Example 101, N-[(2RS)-3,3-Difluoro-2-hydroxypropyl]-3-oxo-2-(pyridin-3-yl)-6-[4-(trifluoromethyl)phenyl]-2,3-dihydropyridazine-4-carboxamide] | 9.54 nM | > 20000 nM |
| O=C(N[C@@H]1COC[C@@H]1O)c1cc(-c2ccc(C(F)(F)F)cc2)nn(-c2cccnc2)c1=O (racemic) [Example 107, N-[(3RS,4RS)-4-Hydroxytetrahydrofuran-3-yl]-3-oxo-2-(pyridin-3-yl)-6-[4-(trifluoromethyl)phenyl]-2,3-dihydropyridazine-4-carboxamide] | 12.3 nM | > 20000 nM |
| O=C(NCC(O)C(F)(F)F)c1cc(-c2ccc(C(F)(F)F)cc2)nn(-c2cccnc2)c1=O (racemic) [Example 108, 3-Oxo-2-(pyridin-3-yl)-N-[(2RS)-3,3,3-trifluoro-2-hydroxypropyl]-6-[4-(trifluoromethyl)phenyl]-2,3-dihydropyridazine-4-carboxamide] | – | > 20000 nM |
| O=C(NC(CO)C1CC1)c1cc(-c2ccc(C(F)(F)F)cc2)nn(-c2cccnc2)c1=O (racemic) [Example 109, N-[(1RS)-1-Cyclopropyl-2-hydroxyethyl]-3-oxo-2-(pyridin-3-yl)-6-[4-(trifluoromethyl)phenyl]-2,3-dihydropyridazine-4-carboxamide] | 1.63 nM | > 20000 nM |
| O=C(N[C@H]1COC[C@@H]1O)c1cc(-c2ccc(OC(F)(F)F)cc2)nn(-c2cccnc2)c1=O (racemic) [Example 160, N-[(trans)-4-Hydroxytetrahydrofuran-3-yl]-3-oxo-2-(pyridin-3-yl)-6-[4-(trifluoromethoxy)phenyl]-2,3-dihydropyridazine-4-carboxamide] | 79.2 nM | > 20000 nM |
| O=C(N[C@H]1COC[C@H]1O)c1cc(-c2ccc(Cl)cc2)nn(-c2cccnc2)c1=O (racemic) [Example 171, rac-6-(4-chlorophenyl)-N-[(cis)-4-hydroxytetrahydrofuran-3-yl]-3-oxo-2-(pyridin-3-yl)-2,3-dihydropyridazine-4-carboxamide] | 58.4 nM | > 20000 nM |
| O=C(N[C@H]1COC[C@@H]1O)c1cc(-c2ccc(Cl)cc2)nn(-c2cccnc2)c1=O (relative stereo) [Example 168, 6-(4-Chlorophenyl)-N-[(trans)-4-hydroxytetrahydrofuran-3-yl]-3-oxo-2-(pyridin-3-yl)-2,3-dihydropyridazine-4-carboxamide] | 240 nM | – |
| O=C(N[C@@H]1COC[C@@H]1O)c1cc(-c2ccc(C(F)(F)F)cc2)nn(-c2cccnc2)c1=O (single isomer, unassigned) [Example 252, (−)-N-cis-4-Hydroxytetra-hydrofuran-3-yl-3-oxo-2-(pyridin-3-yl)-6-[4-(trifluoromethyl)phenyl]-2,3-dihydropyridazine-4-carboxamide] | 18 nM | – |
| CC(NC(=O)c1cc(-c2ccc(Cl)cc2)nn(-c2cccnc2)c1=O)C(O)C(F)(F)F (single isomer, unassigned) [Example 300, 6-(4-Chlorophenyl)-3-oxo-2-(pyridin-3-yl)-N-(4,4,4-trifluoro-3-hydroxybutan-2-yl)-2,3-dihydropyridazine-4-carboxamide] | – | > 20000 nM |
| O=C(NC[C@H](O)C(F)(F)F)c1cc(-c2ccc(C(F)(F)F)cc2)nn(-c2cccnc2)c1=O [Example 117, 3-Oxo-2-(pyridin-3-yl)-N-[(2S)-3,3,3-trifluoro-2-hydroxypropyl]-6-[4-(trifluoromethyl)phenyl]-2,3-dihydropyridazine-4-carboxamide] | – | > 20000 nM |
| C[C@@H](CO)NC(=O)c1cc(-c2ccc(C(F)(F)F)nc2)nn(-c2cccnc2)c1=O [Example 166, N-[(2S)-1-Hydroxypropan-2-yl]-3-oxo-2-(pyridin-3-yl)-6-[6-(trifluoromethyl)pyridin-3-yl]-2,3-dihydropyridazine-4-carboxamide] | 180 nM | – |

Results, then the compound that gave them:

| IC50 (AHR [1]) | IC50 (AHR [2]) | Structure (SMILES) |
| --- | --- | --- |
| 2.66 nM | > 20000 nM | Cn1cc(-n2nc(-c3ccc(Cl)cc3)cc(C(=O)NC(CO)C(F)(F)F)c2=O)cn1 (racemic) [Example 33, 6-(4-Chlorophenyl)-2-(1-methyl-1H-pyrazol-4-yl)-3-oxo-N-[(2RS)-1,1,1-trifluoro-3-hydroxypropan-2-yl]-2,3-dihydropyridazine-4-carboxamide] |
| 23 nM | > 20000 nM | Cn1cc(-n2nc(-c3ccc(Cl)cc3)cc(C(=O)N[C@@H]3COC[C@@H]3O)c2=O)cn1 (racemic) [Example 43, 6-(4-Chlorophenyl)-N-[(cis)-4-hydroxytetrahydrofuran-3-yl]-2-(1-methyl-1H-pyrazol-4-yl)-3-oxo-2,3-dihydropyridazine-4-carboxamide] |
| 17.9 nM | > 20000 nM | Cn1cc(-n2nc(-c3ccc(OC(F)(F)F)cc3)cc(C(=O)N[C@@H]3COC[C@@H]3O)c2=O)cn1 (racemic) [Example 55, N-[(cis)-4-Hydroxytetrahydrofuran-3-yl]-2-(1-methyl-1H-pyrazol-4-yl)-3-oxo-6-[4-(trifluoromethoxy)phenyl]-2,3-dihydropyridazine-4-carboxamide] |
| 81 nM | > 20000 nM | Cn1cc(-n2nc(-c3ccc(OC(F)(F)F)cc3)cc(C(=O)N[C@@H]3COC[C@H]3O)c2=O)cn1 (racemic) [Example 63, N-[(trans)-4-Hydroxytetrahydrofuran-3-yl]-2-(1-methyl-1H-pyrazol-4-yl)-3-oxo-6-[4-(trifluoromethoxy)phenyl]-2,3-dihydropyridazine-4-carboxamide] |
| 9.61 nM | > 20000 nM | O=C(N[C@H]1CCCC(F)(F)[C@@H]1O)c1cc(-c2ccc(Cl)cc2)nn(-c2cccnc2)c1=O (racemic) [Example 143, 6-(4-Chlorophenyl)-N-[(trans)-3,3-difluoro-2-hydroxycyclohexyl]-3-oxo-2-(pyridin-3-yl)-2,3-dihydropyridazine-4-carboxamide] |
| 9.54 nM | > 20000 nM | Cn1cc(-n2nc(-c3ccc(Cl)cc3)cc(C(=O)N[C@H]3CCC[C@@H]3O)c2=O)cn1 (relative stereo) [Example 51, 6-(4-Chlorophenyl)-N-[(trans)-2-hydroxycyclopentyl]-2-(1-methyl-1H-pyrazol-4-yl)-3-oxo-2,3-dihydropyridazine-4-carboxamide] |
| 11.5 nM | > 20000 nM | Cn1cc(-n2nc(-c3ccc(C(F)F)cc3)cc(C(=O)N[C@H]3CCC[C@@H]3O)c2=O)cn1 (relative stereo) [Example 52, 6-[4-(Difluoromethyl)phenyl]-N-[(trans)-2-hydroxycyclopentyl]-2-(1-methyl-1H-pyrazol-4-yl)-3-oxo-2,3-dihydropyridazine-4-carboxamide] |
| 21.8 nM | > 20000 nM | Cn1cc(-n2nc(-c3ccc(C(F)F)cc3)cc(C(=O)N[C@@H]3COC[C@@H]3O)c2=O)cn1 (relative stereo) [Example 60, 6-[4-(Difluoromethyl)phenyl]-N-[(cis)-4-hydroxytetrahydrofuran-3-yl]-2-(1-methyl-1H-pyrazol-4-yl)-3-oxo-2,3-dihydropyridazine-4-carboxamide] |
| 7.52 nM | > 20000 nM | O=C(N[C@@H]1CCCC[C@@H]1O)c1cc(-c2ccc(Cl)cc2)nn(-c2cccnc2)c1=O (relative stereo) [Example 133, 6-(4-Chlorophenyl)-N-[(cis)-2-hydroxycyclohexyl]-3-oxo-2-(pyridin-3-yl)-2,3-dihydropyridazine-4-carboxamide] |
| – | > 20000 nM | O=C(N[C@H]1CCCC[C@H]1O)c1cc(-c2ccc(C(F)(F)F)cc2)nn(-c2cccnc2)c1=O [Example 106, N-[(1S,2R)-2-Hydroxycyclohexyl]-3-oxo-2-(pyridin-3-yl)-6-[4-(trifluoromethyl)phenyl]-2,3-dihydropyridazine-4-carboxamide] |
